Test results: ChEMBL document CHEMBL1201862, “PubChem BioAssay data set” (2004)
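Cells were grown in 96-well plates and exposed to each compound for 48 hours at five concentrations; endpoints were interpolated linearly between bracketing concentrations, or set to the highest concentration if not reached. At the GI50, growth is halved.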 The source made the active and inactive calls. Cut-off read from the data, not from the text of the source: active = GI50 up to about 1.1 µM and inactive = higher.

What was measured:
Assay in all cases: inhibition of tumour cell growth, NCI panel, 48 h
SN12C = tested on: SN12C
SK-MEL-28 = tested on: SK-MEL-28
OVCAR-8 = tested on: OVCAR-8
HCT-15 = tested on: HCT-15
LOX IMVI = tested on: LOX IMVI
SF-539 = tested on: SF-539
COLO 205 = tested on: COLO 205
UACC-257 = tested on: UACC-257
SR = tested on: SR
HCC 2998 = tested on: HCC 2998
NCI-H460 = tested on: NCI-H460
K562 = tested on: K562
MOLT-4 = tested on: MOLT-4
MCF7 = tested on: MCF7
KM12 = tested on: KM12
HOP-62 = tested on: HOP-62
SNB-75 = tested on: SNB-75
RXF 393 = tested on: RXF 393
M14 = tested on: M14
SK-OV-3 = tested on: SK-OV-3
MDA-MB-435 = tested on: MDA-MB-435
IGROV-1 = tested on: IGROV-1
CAKI-1 = tested on: CAKI-1
PC-3 = tested on: PC-3
DU-145 = tested on: DU-145
Malme-3M = tested on: Malme-3M
HOP-92 = tested on: HOP-92
UO-31 = tested on: UO-31
UACC-62 = tested on: UACC-62
MDA-MB-231 = tested on: MDA-MB-231
SW-620 = tested on: SW-620
ACHN = tested on: ACHN
CCRF-CEM = tested on: CCRF-CEM
HL-60 = tested on: HL-60
A549 = tested on: A549
SK-MEL-5 = tested on: SK-MEL-5
EKVX = tested on: EKVX
A498 = tested on: A498
TK-10 = tested on: TK-10
NCI-H226 = tested on: NCI-H226
NCI/ADR-RES = tested on: NCI/ADR-RES
RPMI-8226 = tested on: RPMI-8226
OVCAR-4 = tested on: OVCAR-4
SNB-19 = tested on: SNB-19
SF-295 = tested on: SF-295
Hs-578T = tested on: Hs-578T
786-0 = tested on: 786-0
MDA-N = tested on: MDA-N
NCI-H23 = tested on: NCI-H23
HCT-116 = tested on: HCT-116
BT-549 = tested on: BT-549
T47D = tested on: T47D
SF-268 = tested on: SF-268
U-251 = tested on: U-251
HT-29 = tested on: HT-29
SK-MEL-2 = tested on: SK-MEL-2
OVCAR-5 = tested on: OVCAR-5
OVCAR-3 = tested on: OVCAR-3

Compound: Cc1cc([C@H](C#N)c2nc3ccccc3s2)nc(Cl)n1
- GI50 (SN12C): 3.42 µM (inactive)
- GI50 (SK-MEL-28): 6.67 µM (inactive)
- GI50 (OVCAR-8): 3.18 µM (inactive)
- GI50 (HCT-15): 3.66 µM
- GI50 (LOX IMVI): 2.89 µM (inactive)
- GI50 (SF-539): 4.92 µM (inactive)
- GI50 (COLO 205): 2.4 µM (inactive)
- GI50 (UACC-257): 5.41 µM (inactive)
- GI50 (SR): 1.31 µM (inactive)
- GI50 (HCC 2998): 4.86 µM (inactive)
- GI50 (NCI-H460): 3.45 µM (inactive)
- GI50 (K562): 2.75 µM (inactive)
- GI50 (MOLT-4): 5.5 µM (inactive)
- GI50 (MCF7): 4.41 µM (inactive)
- GI50 (KM12): 2.78 µM (inactive)
- GI50 (HOP-62): 4.66 µM (inactive)
- GI50 (SNB-75): 2.21 µM (inactive)
- GI50 (RXF 393): 7.4 µM (inactive)
- GI50 (M14): 5.57 µM (inactive)
- GI50 (SK-OV-3): 5.66 µM (inactive)
- GI50 (MDA-MB-435): 2.99 µM (inactive)
- GI50 (IGROV-1): 3.52 µM (inactive)
- GI50 (CAKI-1): 4.51 µM (inactive)
- GI50 (PC-3): 3.54 µM (inactive)
- GI50 (DU-145): 23.7 µM (inactive)
- GI50 (Malme-3M): 3.81 µM (inactive)
- GI50 (HOP-92): 2.32 µM (inactive)
- GI50 (UO-31): 4.39 µM (inactive)
- GI50 (UACC-62): 3.65 µM (inactive)
- GI50 (MDA-MB-231): 3 µM (inactive)
- GI50 (SW-620): 3.04 µM (inactive)
- GI50 (ACHN): 9.25 µM (inactive)
- GI50 (CCRF-CEM): 3.82 µM (inactive)
- GI50 (HL-60): 3.67 µM (inactive)
- GI50 (A549): 14.8 µM (inactive)
- GI50 (SK-MEL-5): 1.79 µM (inactive)
- GI50 (EKVX): 18.6 µM (inactive)
- GI50 (A498): 15.2 µM (inactive)
- GI50 (TK-10): 4.98 µM (inactive)
- GI50 (NCI-H226): 3.46 µM (inactive)
- GI50 (NCI/ADR-RES): 3.08 µM (inactive)
- GI50 (RPMI-8226): 2.3 µM (inactive)
- GI50 (OVCAR-4): 5.82 µM (inactive)
- GI50 (SNB-19): 6.7 µM (inactive)
- GI50 (SF-295): 15.5 µM (inactive)
- GI50 (Hs-578T): 4.71 µM (inactive)
- GI50 (786-0): 4.76 µM (inactive)
- GI50 (MDA-N): 3.55 µM (inactive)
- GI50 (NCI-H23): 2.78 µM (inactive)
- GI50 (HCT-116): 3.22 µM (inactive)
- GI50 (BT-549): 3.94 µM (inactive)
- GI50 (T47D): 2.92 µM (inactive)
- GI50 (SF-268): 5.01 µM (inactive)
- GI50 (U-251): 2.86 µM (inactive)
- GI50 (HT-29): 3.88 µM (inactive)
- GI50 (SK-MEL-2): 4.72 µM (inactive)
- GI50 (OVCAR-5): 16.3 µM (inactive)
- GI50 (OVCAR-3): 4.84 µM (inactive)
